Reference: patent publication US20130101684A1, “Compounds, Compositions, And Methods For Reducing Or Eliminating Bitter Taste” (Chromocell Corporation, priority 2010, published 2013)
Like-named read-outs stand apart in the source and are kept apart here.

Key:
[1] = test system: bitter taste of KCl foodstuff slurries; test: Two-alternative forced choice (2AFC) sip and spit test of KCl turkey foodstuff slurries; type: in vivo, humans; conditions: turkey slurry with KCl 1.6%, 1% EtOH, 2AFC vs KCl slurry standard, dash = at none of the tested conc.; for minimal effective concentration: Homo sapiens
Protocol: Edible KCl food compositions (“KCl test foodstuff slurries”) were prepared as follows. Dehydrated, salt-free turkey powder was weighed and mixed with various amounts of KCl and/or NaCl and then solubilized with boiling water to create a homogenized solubilized turkey slurry. Varying amounts of the test compounds were dissolved in an amount of ethanol or water (depending on the solubility of the compound) to create a 5 mg/mL stock compound solution. An amount of this stock compound solution was then added to the turkey slurry. Enough EtOH is then added to the resulting stock compound/turkey slurry so that the slurry contains 1% EtOH. The slurry was again homogenized by boiling and mixing and allowed to cool to yield the final KCl test foodstuff slurry for taste testing. KCl foodstuff slurry standards were similarly prepared without any test compound. […] The effect of the test compounds on the perception of the bitter taste of KCl foodstuff slurries in humans was evaluated using a two-alternative-forced-choice “sip and spit” test as follows. In a blind taste test, panelists received two portions of turkey slurry—one portion being the KCl foodstuff slurry standard and the other being one of the KCl test foodstuff slurries (each prepared as described in Example 5). The panelists tasted each of the portions by sipping and spitting. Each sample was tested in 2-4 discrete taste test experiments. Panelists were asked to rinse with water, eat a cracker, and wait about 10 minutes between samples. In each case, the panelists were asked to compare the bitter taste of the two turkey samples to each other (i.e. panelists were asked to indicate which sample was less bitter).

[2] = test system: bitter taste of an aqueous solution of KCl; test: Sip and spit taste test of aqueous KCl test solutions, bitterness rated 0-15 against KCl solution standards; type: in vivo, humans; conditions: aqueous KCl 4.85 g/L, 1% EtOH, human panel, vs KCl solution standard, dash = at none of the tested conc.
Protocol: Edible KCl solution compositions (“KCl test solutions”) were prepared by first dissolving varying amounts of the test compounds in an amount of ethanol or water (depending on the solubility of the compound) to create a 5 mg/mL stock compound solution. An amount of this stock compound solution is then added to an aqueous KCl solution. Enough EtOH is then added to the resulting stock compound/KCl solution so that the final KCl test solution contains 1% EtOH. KCl solution standards were similarly prepared by dissolving various amounts of KCl in water and ethanol without adding any test compound. […] The effect of the test compounds on the perception of the bitter taste of an aqueous solution of KCl in humans was evaluated using a “sip and Spit” test as follows. A set of KCl solutions standards was developed and each standard solution was assigned a bitterness taste score of 0-15 (corresponding to aqueous KCl concentrations of 0 mM-120 mM). Panelists were trained to recognize these standards. In addition, before each day of testing, panelists were tested to see if they could determine differences in taste between the standard solutions, if a panelist was unable to recognize a change in KCl concentration, they were excluded from the panel for that day. In a blind taste test, panelists were asked to compare the bitter taste of a small quantity (e.g. 8 ml) of each of the KCl Test Solutions to the taste of a KCl solution standard, without swallowing (see, e.g., Table 1). Specifically, panelists were asked to rate the bitterness of each KCl Test Solution on a scale of 0-15 using the same scale developed for the KCl solution standards. Each sample was tested in 2-4 discrete taste test experiments. Panelists were asked to rinse with water, eat a cracker, and wait approximately 10 minutes between samples.

[3] = read-out: Conc. Where Decrease in Bitter Taste Was Discerned
[4] = read-out: Conc. at Which At Least 50% of Panelist Discerned Decrease in Bitter Taste
[5] = read-out: Conc. Where Decrease in Bitter Taste Discerned and p ≦ 0.1
[6] = read-out: Conc. at Which At Least 50% of Panelist Discerned Decrease in Bitter Taste and p ≦ 0.1

Compound	minimal effective concentration [2, 3] [µg/mL]	minimal effective concentration [1, 4] [µg/mL]	minimal effective concentration [2, 5] [µg/mL]	other results
COc1ccc(OC)c(CNc2cc(C)ccc2C)c1 [Compound 7]				Conc. at Which At Least 50% of Panelist Discerned Decrease in Bitter Taste [1]: 1 ppm; Conc. Where Decrease in Bitter Taste Discerned and p ≦ 0.1 [2]: 1 ppm; Conc. Where Decrease in Bitter Taste Was Discerned [2]: 1 ppm
O=C(O)c1cc(Br)cc2c1NC(c1ccc(Cl)cc1)C1CC=CC21 (centres unmarked) [Compound 43]	1			
COc1cccc(CNc2cccc(C)c2)c1OC [Compound 5]	10			
COc1cc(/C=N/c2ccccc2C)ccc1O [Compound 2]		10	1	
COc1ccccc1CNc1cc(C)ccc1OC [Compound 19]	1		1	minimal effective concentration [1, 6]: 10 µg/mL
COc1cccc(CNc2cc(C)ccc2C)c1OC [Compound 15]		10	10	minimal effective concentration [1, 6]: 10 µg/mL
COC(=O)c1ccc(C)c(NC(=O)c2c(Cl)cnn2C)c1 [Compound 31]				Conc. at Which At Least 50% of Panelist Discerned Decrease in Bitter Taste [1]: 1 ppm
COC(=O)c1ccccc1NC(=O)c1c(Cl)cnn1C [Compound 27]		30		
Cn1ncc(Cl)c1C(=O)Nc1ccccc1C(N)=O [Compound 33]	1			
CCOc1cc(CNc2ccccc2SC)ccc1OC [Compound 4]			10	
CCOc1cc(CNc2ccccc2)ccc1OC [Compound 10]				Conc. Where Decrease in Bitter Taste Discerned and p ≦ 0.1 [2]: 1 ppm
CCOc1cc(CNc2cccc(Cl)c2C)ccc1OC [Compound 6]	1			
CCn1ncc(Cl)c1C(=O)Nc1cc(Cl)ccc1Cl [Compound 28]				Conc. at Which At Least 50% of Panelist Discerned Decrease in Bitter Taste [1]: 10 ppm
COc1ccc(CNc2ccc(Br)cc2C)cc1OC [Compound 8]	1			
COC(=O)c1cccc2c1NC(c1ccc(Cl)cc1)C1CC=CC21 (centres unmarked) [Compound 42]		1		
COc1cc(CNc2cccc(C)c2C)ccc1OCc1ccccc1 [Compound 22]			1	
CCn1ccc(C(=O)Nc2ccccc2C(=O)OC)n1 [Compound 36]		10	10	
COc1cc(CO)ccc1OCc1ccccc1C [Compound 1]		1		
Cc1c2ccccc2nc2c(F)c(N3CCCC3)c(F)c(F)c12 [Compound 45]		1	0.1	
CC(=O)Oc1ccc(C2Nc3c(C(=O)O)cccc3C3C=CCC32)cc1 (centres unmarked) [Compound 39]				minimal effective concentration [1, 6]: 10 µg/mL
CCOc1cc(CNc2cc(C)ccc2C)ccc1OC [Compound 12]		10	10	
Cc1nc2c(C)ccc(C)c2c(O)c1CN1CCN(c2ccccc2)CC1 [Compound 47]		10		minimal effective concentration [1, 6]: 10 µg/mL
Cc1ccc(NC(=O)CCOc2ccccc2)c(C)c1 [Compound 54]		1		
CCn1ccc(C(=O)Nc2cc(OC)c(OC)cc2C(=O)OC)n1 [Compound 35]	1	10	1	
CCCC(=O)Nc1ccc(C)c(Cl)c1 [Compound 50]	1			
